In paper PMC6422671 (British Journal of Clinical Pharmacology, 2019):

Test: Clinical laboratory findings: chemistry; data mean (standard deviation)
Assay type: in vivo, healthy men
Excerpt: Data are mean (standard deviation).

## C[C@@H](N)c1cc(Cl)ccc1Cn1c(=S)[nH]c(=O)c2[nH]ccc21 [AZD4831]
45 mg fed, 24 h
  ALP: 0.993 (0.202) µkat L^–1
  ALT: 0.324 (0.125) µkat L^–1
  AST: 0.281 (0.048) µkat L^–1
  Albumin: 41.2 (3.8) g L^–1
  Bilirubin: 9.7 (0.6) µmol L^–1
  CRP: 0.42 (0.20) mg L^–1
  Calcium: 2.30 (0.10) mmol L^–1
  Creatinine: 71.2 (11.4) µmol L^–1
  GGT: 0.310 (0.053) µkat L^–1
  Glucose: 5.06 (0.38) mmol L^–1
  Phosphate: 1.10 (0.08) mmol L^–1
  Potassium: 4.28 (0.26) mmol L^–1
  Sodium: 139.6 (1.6) mmol L^–1
  Urea: 4.04 (0.45) mmol L^–1
45 mg fed, 48 h
  ALP: 1.004 (0.205) µkat L^–1
  ALT: 0.325 (0.119) µkat L^–1
  AST: 0.296 (0.053) µkat L^–1
  Albumin: 42.1 (3.4) g L^–1
  Bilirubin: 9.5 (1.3) µmol L^–1
  CRP: 0.42 (0.22) mg L^–1
  Calcium: 2.33 (0.07) mmol L^–1
  Creatinine: 70.9 (9.3) µmol L^–1
  GGT: 0.303 (0.051) µkat L^–1
  Glucose: 5.27 (0.13) mmol L^–1
  Phosphate: 1.09 (0.05) mmol L^–1
  Potassium: 4.27 (0.05) mmol L^–1
  Sodium: 140.1 (1.4) mmol L^–1
  Urea: 4.19 (0.41) mmol L^–1
45 mg fed, follow up
  ALP: 1.103 (0.265) µkat L^–1
  ALT: 0.364 (0.151) µkat L^–1
  AST: 0.358 (0.049) µkat L^–1
  Albumin: 44.1 (3.2) g L^–1
  Bilirubin: 9.6 (2.3) µmol L^–1
  CRP: 2.35 (3.10) mg L^–1
  Calcium: 2.34 (0.08) mmol L^–1
  Creatinine: 74.6 (5.0) µmol L^–1
  GFR: 109 (15) mL min^–1 1.73m^–2
  GGT: 0.316 (0.087) µkat L^–1
  Glucose: 5.18 (0.25) mmol L^–1
  Phosphate: 1.08 (0.11) mmol L^–1
  Potassium: 4.34 (0.20) mmol L^–1
  Sodium: 139.6 (0.6) mmol L^–1
  Urea: 4.18 (0.78) mmol L^–1
135 mg fasted, 24 h
  ALP: 1.128 (0.226) µkat L^–1
  ALT: 0.323 (0.137) µkat L^–1
  AST: 0.304 (0.076) µkat L^–1
  Albumin: 43.4 (2.4) g L^–1
  Bilirubin: 12.2 (4.3) µmol L^–1
  CRP: 0.60 (0.30) mg L^–1
  Calcium: 2.36 (0.08) mmol L^–1
  Creatinine: 83.6 (8.7) µmol L^–1
  GGT: 0.318 (0.171) µkat L^–1
  Glucose: 4.74 (0.58) mmol L^–1
  Phosphate: 1.06 (0.23) mmol L^–1
  Potassium: 4.11 (0.11) mmol L^–1
  Sodium: 139.8 (0.7) mmol L^–1
  Urea: 4.50 (0.56) mmol L^–1
135 mg fasted, 48 h
  ALP: 1.175 (0.250) µkat L^–1
  ALT: 0.325 (0.191) µkat L^–1
  AST: 0.308 (0.101) µkat L^–1
  Albumin: 43.9 (2.8) g L^–1
  Bilirubin: 11.6 (3.5) µmol L^–1
  CRP: 0.50 (0.26) mg L^–1
  Calcium: 2.37 (0.07) mmol L^–1
  Creatinine: 81.0 (9.1) µmol L^–1
  GGT: 0.325 (0.161) µkat L^–1
  Glucose: 4.75 (0.37) mmol L^–1
  Phosphate: 1.01 (0.19) mmol L^–1
  Potassium: 4.06 (0.17) mmol L^–1
  Sodium: 140.3 (1.4) mmol L^–1
  Urea: 4.24 (0.74) mmol L^–1
135 mg fasted, follow up
  ALP: 1.239 (0.208) µkat L^–1
  ALT: 0.299 (0.129) µkat L^–1
  AST: 0.332 (0.064) µkat L^–1
  Albumin: 46.0 (2.6) g L^–1
  Bilirubin: 13.1 (5.1) µmol L^–1
  CRP: 8.94 (12.69) mg L^–1
  Calcium: 2.36 (0.11) mmol L^–1
  Creatinine: 85.1 (12.7) µmol L^–1
  GFR: 104 (22) mL min^–1 1.73m^–2
  GGT: 0.306 (0.143) µkat L^–1
  Glucose: 4.71 (0.54) mmol L^–1
  Phosphate: 1.00 (0.21) mmol L^–1
  Potassium: 4.07 (0.20) mmol L^–1
  Sodium: 140.2 (2.1) mmol L^–1
  Urea: 4.15 (1.35) mmol L^–1
405 mg fasted, 24 h
  ALP: 0.958 (0.139) µkat L^–1
  ALT: 0.338 (0.119) µkat L^–1
  AST: 0.363 (0.077) µkat L^–1
  Albumin: 43.7 (2.3) g L^–1
  Bilirubin: 14.9 (2.3) µmol L^–1
  CRP: 1.17 (1.28) mg L^–1
  Calcium: 2.39 (0.06) mmol L^–1
  Creatinine: 86.2 (14.7) µmol L^–1
  GGT: 0.298 (0.146) µkat L^–1
  Glucose: 4.77 (0.30) mmol L^–1
  Phosphate: 1.07 (0.11) mmol L^–1
  Potassium: 4.42 (0.31) mmol L^–1
  Sodium: 139.2 (1.0) mmol L^–1
  Urea: 4.55 (1.01) mmol L^–1
405 mg fasted, 48 h
  ALP: 0.947 (0.186) µkat L^–1
  ALT: 0.351 (0.097) µkat L^–1
  AST: 0.366 (0.075) µkat L^–1
  Albumin: 44.2 (2.7) g L^–1
  Bilirubin: 13.4 (2.1) µmol L^–1
  CRP: 1.19 (1.17) mg L^–1
  Calcium: 2.40 (0.06) mmol L^–1
  Creatinine: 81.1 (13.0) µmol L^–1
  GGT: 0.290 (0.133) µkat L^–1
  Glucose: 4.88 (0.35) mmol L^–1
  Phosphate: 1.06 (0.15) mmol L^–1
  Potassium: 4.33 (0.33) mmol L^–1
  Sodium: 139.6 (1.0) mmol L^–1
  Urea: 4.68 (1.07) mmol L^–1
405 mg fasted, follow up
  ALP: 1.037 (0.190) µkat L^–1
  ALT: 0.346 (0.071) µkat L^–1
  AST: 0.398 (0.062) µkat L^–1
  Albumin: 46.6 (2.7) g L^–1
  Bilirubin: 13.2 (3.1) µmol L^–1
  CRP: 1.17 (0.86) mg L^–1
  Calcium: 2.43 (0.10) mmol L^–1
  Creatinine: 81.1 (12.2) µmol L^–1
  GFR: 104 (12) mL min^–1 1.73m^–2
  GGT: 0.298 (0.137) µkat L^–1
  Glucose: 4.63 (0.39) mmol L^–1
  Phosphate: 1.12 (0.17) mmol L^–1
  Potassium: 4.39 (0.18) mmol L^–1
  Sodium: 141.5 (2.6) mmol L^–1
  Urea: 3.87 (0.96) mmol L^–1
Except serum uric acid at 135 mg or 405 mg
  changes in clinical chemistry, haematology or urinary parameters: no systemic or dose‐related changes
